{"source": "patent US11478458B2", "about": "“Inhibitors of short-chain dehydrogenase activity for promoting neurogenesis and inhibiting nerve cell death” (CASE WESTERN RESERVE UNIVERSITY, priority 2016, dated 2022)", "key": {"[1]": {"experiment": "pharmacokinetics in plasma and brain after intraperitoneal injection", "type": "in vivo", "details": "mouse, 25 mg/kg intraperitoneal, female C57BL/7 mice, read-out: total drug exposure (area under the curve) in brain relative to plasma"}, "[2]": {"test_system": "PGE2 production by cell lines", "experiment": "PGE2 production by cell lines", "type": "cell-based"}, "[3]": {"experiment": "stability on incubation with hepatocyte cell lines", "type": "in vitro ADME"}, "[4]": {"experiment": "chemical stability in aqueous solutions", "type": "physicochemical", "details": "over broad pH range"}, "[5]": {"experiment": "toxicity after IP injection into mice"}, "[6]": {"experiment": "stability on incubation with hepatocyte extracts", "type": "in vitro ADME"}, "[7]": {"test_system": "PGE2 levels in rat brain cortex", "experiment": "PGE2 levels in rat brain cortex after IP injection", "type": "in vivo", "method": "FIG. 7 illustrates a graph showing PGE2 levels in rat brain cortex following IP injection of (+) SW033291 at 2.5, 5.0, and 10.0 mg/kg. PGE2 levels are elevated in rat brain cortex 30, 120, and 180 minutes following a single IP injection of (+)-SW033291 at the noted doses."}, "15-PGDH": {"molecular_target": "T1, 15-PGDH (Mus musculus, UniProt Q8VCC1)", "T1 construct": "from tissue; host or cells: mouse brain (cortex, cerebellum, pons and medulla)", "T1 sequence (Q8VCC1 1-269)": "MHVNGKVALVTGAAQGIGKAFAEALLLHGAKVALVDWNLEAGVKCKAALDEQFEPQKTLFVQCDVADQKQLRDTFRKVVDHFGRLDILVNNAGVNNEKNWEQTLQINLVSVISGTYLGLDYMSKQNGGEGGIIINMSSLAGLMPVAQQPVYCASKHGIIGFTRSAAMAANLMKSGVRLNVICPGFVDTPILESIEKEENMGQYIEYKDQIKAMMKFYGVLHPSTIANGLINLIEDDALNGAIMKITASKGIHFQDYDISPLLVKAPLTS", "experiment": "15-PGDH activity in mouse brain regions after IP injection", "type": "in vivo", "details": "2.5 mpk IP", "method": "FIGS. 6(A-C) illustrate graphs showing 15-PGDH activity in the cortex (A), cerebellum (B), and pons and medulla (C) of mouse brain following IP injection of 15-PGDH inhibitor (+) SW033291 at 2.5 mpk. 15-PGDH activity was measured from the 3 regions of mouse brain using a 15-tritiated PGE2 substrate. A coupled enzymatic assay uses 15-PGDH and glutamate dehydrogenase to transfer tritium from PGE2 onto glutamate. Brain tissues were harvested for assay at the times shown following IP injection of 15-PGDH inhibitor (+)-SW033291 at 2.5 mpk."}, "[8]": {"test_system": "mice subjected to blast injury (traumatic brain injury)", "experiment": "learning, memory and beam walking after traumatic brain injury (blast injury)", "type": "in vivo", "details": "blast-injured mice", "method": "In this study, mice were on day 0 subjected to traumatic brain injury from exposure to an adjacent blast injury in an overpressure chamber. 24 hours later, on study day 1, mice treatment with (+) SW033291 at 10 mg/kg was initiated by daily intraperitoneal injection. A parallel cohort of control mice were initiated on injection with vehicle only. On study day 7, mice commenced 4 days of daily training to learn the location of a cup on a table with 20 holes equally spaced around the perimeter, in the standard Barnes maze task. […] Cohorts that are compared are sham-injured mice, mice subjected to blast injury and treated with vehicle, mice subjected to blast injury and treated with the neuroprotective agent P7C3-A20, and mice subjected to blast injury and treated with (+) SW033291. Quicker time in finding the cup on day 4 is reflective of learning.\nOn study day 11, mice were returned to the Barnes maze with the escape cup removed, and memory was assessed by measuring the time mice spent within 5 cm of the cup's prior location.\nOn study day 12-14, mice were further trained to traverse a ½ inch cylindrical rod to reach and enter a black box. On day 14, the mice performance was videotaped and counts were made of the number of times a mouse foot slipped from the beam. […] In this assay, the worst performance is recorded for mice exposed to blast-injury receiving vehicle injections."}, "[9]": {"test_system": "prostaglandin E2 (PGE2) in brain", "experiment": "PGE2 in 3 regions of the mouse brain after intraperitoneal injection", "type": "in vivo", "details": "2.5 mg/kg IP, 3 hours after injection; cerebrum, cerebellum, medulla/pons; 3 mice", "description": "Brain regions sampled are #1, the cerebrum, #2, the cerebellum, and #3, medulla/pons. Basal PGE2 is highest in the cerebrum and medulla/pons, and lowest in the cerebellum."}, "[10]": {"details": "cited from earlier work"}, "[11]": {"experiment": "stability on incubation with human liver extracts", "type": "in vitro ADME"}, "[12]": {"experiment": "stability on incubation with rat liver extracts", "type": "in vitro ADME"}, "[13]": {"experiment": "stability on incubation with mouse liver extracts", "type": "in vitro ADME"}, "recombinant 15-PGDH": {"molecular_target": "T2, recombinant 15-PGDH (Homo sapiens, UniProt P15428)", "T2 sequence (P15428 1-266)": "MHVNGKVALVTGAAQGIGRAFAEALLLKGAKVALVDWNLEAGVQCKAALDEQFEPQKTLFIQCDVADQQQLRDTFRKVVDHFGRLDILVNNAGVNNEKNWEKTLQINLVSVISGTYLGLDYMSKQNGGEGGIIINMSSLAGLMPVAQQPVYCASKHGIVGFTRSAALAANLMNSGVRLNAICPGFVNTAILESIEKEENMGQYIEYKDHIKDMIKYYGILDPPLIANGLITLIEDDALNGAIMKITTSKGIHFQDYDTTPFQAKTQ", "experiment": "inhibition of recombinant 15-PGDH", "type": "biochemical"}, "EP2 receptors": {"molecular_target": "T3, EP2 receptors (Homo sapiens, UniProt P43116)", "T3 construct": "host or cells: neurons in vitro", "T3 sequence (P43116 whole entry)": "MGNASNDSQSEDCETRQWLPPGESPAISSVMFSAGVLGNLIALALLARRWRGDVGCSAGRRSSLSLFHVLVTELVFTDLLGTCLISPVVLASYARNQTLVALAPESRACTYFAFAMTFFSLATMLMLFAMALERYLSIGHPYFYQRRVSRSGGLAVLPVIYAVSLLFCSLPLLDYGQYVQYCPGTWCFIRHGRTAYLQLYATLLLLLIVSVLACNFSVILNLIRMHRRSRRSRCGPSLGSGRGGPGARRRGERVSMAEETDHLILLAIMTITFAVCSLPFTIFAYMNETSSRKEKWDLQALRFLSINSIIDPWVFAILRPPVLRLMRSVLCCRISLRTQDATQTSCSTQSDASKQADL", "details": "in vitro; cited from earlier work"}}, "note": "Where two headings read alike, the source gives them in different places.", "data": [{"compound": "CCCC[S+]([O-])c1sc2nc(-c3nccs3)cc(-c3cnc(C)n3C)c2c1N", "note": "(single isomer, unassigned; (+)) [(+) SW209415]", "values": [{"measurement": "Kp", "setting": "[1]", "value": 1.56}]}, {"compound": "CCCC[S+]([O-])c1sc2nc(-c3cccs3)cc(-c3ccccc3)c2c1N", "note": "(centres unmarked) [formula (IX)]", "values": [{"measurement": "PGE2 production by cell lines", "setting": "[2]", "value": "increase PGE2 production"}, {"measurement": "chemical stability when incubated with hepatocyte cell lines", "setting": "[3]", "value": "chemically stable"}, {"measurement": "chemical stability in aqueous solutions", "setting": "[4]", "value": "chemically stable"}, {"measurement": "toxicity on repeated dosing", "setting": "[5]; IP into mice at 0.3 μmole/per mouse twice daily for 21 days", "value": "no toxicity"}, {"measurement": "immediate toxicity over 24 hours", "setting": "[5]; IP into mice at 0.6 μmole/per mouse", "value": "no immediate toxicity"}, {"measurement": "immediate toxicity over 24 hours", "setting": "[5]; IP into mice at 1.2 μmole/per mouse", "value": "no immediate toxicity"}, {"measurement": "chemical stability when incubated with hepatocyte extracts", "setting": "[6]", "value": "chemically stable"}]}, {"compound": "CCCC[S+]([O-])c1sc2nc(-c3cccs3)cc(-c3ccccc3)c2c1N", "note": "(single isomer, unassigned; (+)) [(+) SW033291]", "values": [{"measurement": "PGE2 levels in rat brain cortex", "setting": "[7]; 30, 120 and 180 minutes after single IP injection at 2.5, 5.0, 10.0 mg/kg", "value": "elevated"}, {"measurement": "PGE2 levels in rat brain cortex", "setting": "[7]; 120 minutes after dosing at 10 mpk IP", "value": "double"}, {"measurement": "PGE2 levels in rat brain cortex", "setting": "[7]; 180 minutes after dosing at 5 mpk IP", "value": "double"}, {"measurement": "15-PGDH enzyme activity in brain (cortex, cerebellum, pons and medulla)", "setting": "15-PGDH", "value": "readily inhibited"}, {"measurement": "Barnes maze learning (time to locate the cup, training days 1-4)", "setting": "[8]; daily IP treatment from 24 hours after injury, study days 7-10", "value": "appear similar to control mice that received only sham injury"}, {"measurement": "Barnes maze memory (time within 5 cm of the cup's prior location)", "setting": "[8]; study day 11", "value": "behaved similarly to control mice that received only sham injury"}, {"measurement": "foot slips from the beam", "setting": "[8]; study day 14", "value": "intermediate performance"}, {"measurement": "brain PGE2 levels versus vehicle", "setting": "[9]", "value": "roughly double"}]}, {"compound": "CCCCC[C@H](O)/C=C/[C@H]1[C@H](O)CC(=O)[C@@H]1C/C=C\\CCCC(=O)O", "note": "[PGE2, prostaglandin E2]", "values": [{"measurement": "half-life", "setting": "[10]; following intravenous injection", "value": "less than 1 min"}, {"measurement": "half-life", "setting": "[10]; in the circulatory system", "value": "approximately 30 sec"}]}, {"compound": "CCCC[S+]([O-])c1sc2nc(-c3nccs3)cc(-c3cnc(C)n3C)c2c1N", "note": "(centres unmarked) [formula (X)]", "values": [{"measurement": "concentration at which PGE2 production by cell lines is increased", "setting": "[2]", "value": 20, "unit": "nM"}, {"measurement": "chemical stability when incubated with human liver extracts", "setting": "[11]", "value": "chemically stable"}, {"measurement": "chemical stability when incubated with rat liver extracts", "setting": "[12]", "value": "chemically stable"}, {"measurement": "chemical stability when incubated with mouse liver extracts", "setting": "[13]", "value": "chemically stable"}, {"measurement": "chemical stability in aqueous solutions", "setting": "[4]", "value": "chemically stable"}, {"measurement": "immediate toxicity over 24 hours", "setting": "[5]; IP into mice at 50 mg/kg body weight", "value": "no immediate toxicity"}, {"measurement": "concentration at which recombinant 15-PGDH is inhibited", "setting": "recombinant 15-PGDH", "value": 3, "unit": "nM"}]}, {"compound": "CCCC1([C@H](O)C/C=C/[C@H]2[C@H](O)CC(=O)[C@@H]2CCCCCCC(=O)OC)CCC1", "note": "[butaprost]", "values": [{"measurement": "protection of neurons from amyloid β-peptide neurotoxicity", "setting": "EP2 receptors", "value": "protected neurons"}]}]}
